Results taken from article PMC11931565, “Exploring medium and long arm extensions of 1,2,4-triazole derivatives as Candida albicans 14α-demethylase (CYP51) inhibitors” (RSC Medicinal Chemistry, 2025).
In brackets after ≈: the same amount, converted by molar mass. Where two headings read alike, the source gives them in different places. Numbered stars: 1 amine (or outer) side, 2 acyl side, 3 side chain; on linkers, the order of the positions; unused ones are H or OH. Bridge positions count the residues as written; N and C are the ends. Square brackets hold non-standard residues; d marks the D form. Peptide text beside a SMILES is read from it. * marks the point of attachment. hTyr(3S-OH,4S-OH,3'-OSO3H) = N[C@H](C(=O)O)[C@H](O)[C@@H](O)c1ccc(O)c(OS(=O)(=O)O)c1; Orn(4R-OH,5R-OH) = O=C([C@H](C[C@@H](O)[C@@H](O)N[*:3])N[*:1])[*:2]; Pro(3S-OH,4S-Me) = C[C@H]1CN[C@H](C(=O)O)[C@H]1O; X1 = CCCCCOc1ccc(-c2cc(-c3ccc(C(=O)*)cc3)no2)cc1; Gln(3R-OH) = NC(=O)C[C@@H](O)[C@H](N)C(=O)O; Hyp = O=C(O)[C@@H]1C[C@@H](O)CN1

Tests used:
[1] = tested on: S. cerevisiae Y2411 parent (control levels of wild-type ScCYP51); test: MIC, recombinant S. cerevisiae strain Y2411 parent; type: cell-based; settings: Saccharomyces cerevisiae
Method: (§1) The most promising thiazole derivative 7b, and the extended amide derivatives 13a and 13b were evaluated against a panel of recombinant S. cerevisiae strains[24,31,32] expressing control levels of wild-type CYP51 (ScCYP51), overexpressed wild-type ScCYP51, overexpressed azole-resistant ScCYP51 Y140F/H mutations (S. cerevisiae Y140 equivalent to C. albicans Y132), overexpressed C. albicans efflux pumps MDR1a or CDR1B and overexpressed H. sapiens wild-type CYP51 (HsCYP51) (Table 3) at 24 and 48 h with each assay performed in triplicate.
(§2) Minimum inhibitory concentration (MIC) were determined according to recommendations outlined in the Clinical and Laboratory Standards Institute (CLSI) document M27-Ed4E[39] with modifications. Sabouraud dextrose (SD) medium (pH 6.8) was used instead of RPMI-1640 for inoculum and growth of the S. cerevisiae strains and cultures were incubated at 30 °C. […] Stock solutions of each agent were prepared in DMSO and the final concentration of DMSO was 1% (v/v) in SD. […] The final concentration of all other compounds ranged from 0.03–16 μg mL^−1. Three biological repeats were performed.

[2] = tested on: C. albicans laboratory strain SC5314; test: C. albicans susceptibility testing (CLSI broth microdilution MIC), strain SC5314; type: cell-based, Candida albicans; settings: RPMI 1640, 37 °C, read at 48 h; for MIC: Candida albicans, SC5314, 48 h
Description: (§3) Each novel compound was screened against C. albicans wild-type clinical isolate CA14 and C. albicans laboratory strain SC5314 using the standardised CLSI M27-S4 broth dilution method.[28] […] This might be explained by the clog P data as the more lipophilic compounds should more readily penetrate the fungal membrane resulting in improved uptake or may relate to optimal fill of the small hydrophobic pocket leading to improved binding.
(§4) Antifungal MIC values were obtained according to the CLSI microdilution method for yeasts.[28]C. albicans strains CA14 and SC5314 were tested in triplicate. Cultures were diluted to 2.5 × 10^3 cells per mL in RPMI 1640 (Sigma), buffered with 0.165 M MOPS, pH 7.0. Antifungal compounds were dissolved in DMSO and added at a final concentration of 1% v/v DMSO. Plates were incubated at 37 °C and read at 48 h.

[3] = tested on: S. cerevisiae Y2301 overexpressed ScCYP51 Y140F; test: MIC, recombinant S. cerevisiae strain Y2301 Y140F; type: cell-based; settings: Saccharomyces cerevisiae, pH 6.8, read-out: MIC Y2301 Y140F
Method: as §1, §2

[4] = tested on: S. cerevisiae Y525 overexpressing C. albicans MFS transporter MDR1a; test: MIC, recombinant S. cerevisiae strain Y525 CaMDR1a; type: cell-based; settings: SD medium pH 6.8, 30 °C; 80% inhibition of growth
Method: as §2

native CaCYP51 = target: T1, native CaCYP51 (Candida albicans, UniProt P10613); test: CaCYP51 type II ligand binding affinity (Kd) from difference spectra saturation curves
T1 construct: made in house; host or cells: E. coli
Method: Azole titration was performed in triplicate.
The ligand–CaCYP51 complex was determined by non-linear regression (Levenberg–Marquardt algorithm) using a rearrangement of the Morrison equation for tight ligand binding,[38] while weak ligand binding was calculated by the Michaelis–Menten equation. Curve fitting for novel azole saturation curves was performed using the computer program ProFit 6.1.12 (QuantumSoft, Zurich, Switzerland) for Mac OSX. Kd values were determined for each of the three replicate titrations per azole compound and then mean Kd values and standard deviations calculated.

[5] = tested on: S. cerevisiae Y2300 overexpressed wild-type ScCYP51; test: MIC, recombinant S. cerevisiae strain Y2300 ScCYP51; type: cell-based; settings: Saccharomyces cerevisiae
Method: as §1, §2

[6] = tested on: S. cerevisiae Y2513 overexpressed ScCYP51 Y140H; test: MIC, recombinant S. cerevisiae strain Y2513 Y140H; type: cell-based; settings: Saccharomyces cerevisiae, pH 6.8, read-out: MIC Y2513 Y140H
Method: as §1, §2

[7] = tested on: S. cerevisiae Y2760 overexpressed H. sapiens wild-type CYP51 (HsCYP51); test: MIC, recombinant S. cerevisiae strain Y2760 HsCYP51; type: cell-based; settings: Saccharomyces cerevisiae
Method: as §1
The HsCYP51 ORF (NP_000777.1) was codon harmonized (ch) using DNA 2.0 for expression in S. cerevisiae and synthesized by ATUM (Newark, Ca, USA). The 3′ end of the ORF was extended to encode EQKI of the ScErg11 C-terminus, followed by a GGR linker and a 6xHis tag. Strain Y2514 was prepared by transforming host strain Y1857 with a transformation cassette including the above construct together with the ScPGK transcription terminator and URA3 selection marker located downstream, bordered by upstream and downstream parts of ScPDR5 gene identical to sequences in ScErg11 over-expressing strain Y941. Strain Y2514 constitutively overexpressed HsCYP51ch-6xHis and URA3 from the ScPDR5 locus.
Strain Y2757 (Y2514, PDR15::HsCPRch-6xHis-LoxP-HIS1-LoxP) was prepared by co-expressing the cognate reductase HsCRP in strain Y2514. Codon harmonisation and synthesis of human NADPH-cytochrome P450 reductase isoform 2 (HsCPRch, NP_001369584.1) ORF was performed by ATUM. The gene was 3′ extended with a sequence encoding GGR-6xHIS. A transformation cassette was prepared by recombinant PCR to include the HsCPRch ORF with 657 nucleotides the ScPDR5 promoter upstream, and the ScPGK terminator followed by the LoxP flanked ScHIS1 selection marker downstream. ScPDR15 specific arms bordering the construct enabled the cassette to be integrated between the nucleotide 441 of the 5′ UTR and nucleotide 1 of the 3′ UTR in PDR15.
Strain Y2758 (Y2757 ΔHIS1) was made using the following steps. Strain Y2757 was transformed with the pSH69 pGAL1-cre plasmid (Euroscarf, Germany) via selection on hygromycin (75 μg mL^−1) containing YPD plates. A single hygromycin positive colony was inoculated in 1% yeast extract, 2% peptone and 2% of galactose broth and incubated for 16 hours at 30 °C with shaking. The diluted culture was then plated on YPD agar and replica-plated on YPD + hygromycin and SD-HIS dropout agar plates. Deletion of the HIS selection marker downstream of HsCPRch-6xHis in the PDR15 locus was confirmed in double His and hygromycin negative isolates by PCR and DNA sequence analysis.
The endogenous ScERG11 ORF in strain Y2758 was removed by transforming with a LoxP- ScHIS1 containing cassette with arms complementing from +387 nucleotides in the 5′UTR and −60 nucleotides in the 3′UTR of the ScERG11 locus, resulting in strain Y2760 (ADΔΔ PDR5::HsCYP51ch-6×HIS-URA3; PDR15::HsCPRch6×HIS-LoxP, ΔERG11-LoxP-HIS1-LoxP).
as §2

[8] = tested on: S. cerevisiae Y570 overexpressing C. albicans ABC transporter CDR1B; test: MIC, recombinant S. cerevisiae strain Y570 CaCDR1B; type: cell-based; settings: SD medium pH 6.8, 30 °C; 80% inhibition of growth
Method: as §1, §2

[9] = target: T2, C. albicans CYP51 (CaCYP51) (Candida albicans, UniProt P10613); test: CaCYP51 reconstitution assay (IC50); type: biochemical; settings: 1 μM CaCYP51, 60 μM lanosterol, 15 min at 37 °C
T2 construct: made in house; host or cells: E. coli
Method: Derivatives with a MIC <1 μg mL^−1 were chosen for IC50 testing.
C. albicans CYP51 was overexpressed in E. coli and purified and CaCYP51 reconstitutions assays performed.[10,37] The final reaction volume of 500 μL, contained; 1 μM C. albicans CYP51, 2 μM Homo sapiens cytochrome P450 reductase (CPR) (UniProtKB accession number P16435), 60 μM lanosterol, 50 μM dilaurylphosphatidylcholine, 4% w/v 2-hydroypropyl-cyclodextrin, 0.4 mg mL^−1 isocitrate dehydrogenase, 25 mM trisodium isocitrate, 50 mM NaCl, 5 mM MgCl2, and 40 mM MOPS (morpholinepropanesulfonic acid, pH 7.2). Antifungal compounds were added in 2.5 μL DMSO. The reaction was started by the addition of 4 mM NADPH-tetrasodium salt. Samples were shaken for 15 min at 37 °C and sterol metabolites extracted with ethyl acetate and derivatised with BSTFA.

[10] = tested on: C. albicans wild-type clinical isolate CA14; test: C. albicans susceptibility testing (CLSI broth microdilution MIC), strain CA14; type: cell-based, Candida albicans; settings: RPMI 1640, 37 °C, read at 48 h; for MIC: Candida albicans
Description: as §3, §4

[11] = SD medium pH 6.8, 30 °C, 80% inhibition of growth, read-out: MIC Y2411 parent
[12] = 2.5 μM native CaCYP51, mean ± SD of three titrations, read-out: K d
[13] = SD medium pH 6.8, 30 °C, 80% inhibition of growth, read-out: MIC Y2300 ScCYP51
[14] = SD medium pH 6.8, 30 °C, 80% inhibition of growth, read-out: MIC Y2760 HsCYP51

T1 sequence (P10613 whole entry): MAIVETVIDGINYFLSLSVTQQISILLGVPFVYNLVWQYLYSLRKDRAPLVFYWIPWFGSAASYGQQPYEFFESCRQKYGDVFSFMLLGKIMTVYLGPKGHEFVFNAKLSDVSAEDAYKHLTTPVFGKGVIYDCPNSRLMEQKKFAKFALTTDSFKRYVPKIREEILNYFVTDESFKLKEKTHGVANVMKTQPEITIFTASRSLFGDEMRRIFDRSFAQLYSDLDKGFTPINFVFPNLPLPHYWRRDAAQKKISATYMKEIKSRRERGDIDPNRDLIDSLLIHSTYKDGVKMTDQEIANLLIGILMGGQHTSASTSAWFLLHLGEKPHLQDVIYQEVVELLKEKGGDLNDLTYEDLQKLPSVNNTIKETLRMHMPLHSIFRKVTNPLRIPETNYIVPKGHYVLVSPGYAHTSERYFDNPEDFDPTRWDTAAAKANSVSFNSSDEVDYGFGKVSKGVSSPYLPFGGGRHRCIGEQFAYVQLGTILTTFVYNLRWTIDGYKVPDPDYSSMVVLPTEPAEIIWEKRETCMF
T2 sequence (P10613 whole entry): as above

O=C(NCC(O)(Cn1cncn1)c1ccc(Cl)cc1Cl)c1csc(Cl)n1 (stereo not drawn) [7b, 2-Chloro-N-(2-(2,4-dichlorophenyl)-2-hydroxy-3-(1H-1,2,4-triazol-1-yl)propyl)thiazole-4-carboxamide]
MIC [1, 11]: 0.125 µg/mL
MIC [2]: < 0.03 µg/mL
MIC SC5314 [2]: <0.03 µg/mL
MIC [3]: 4 µg/mL
MIC [4]: 2 µg/mL
Kd (native CaCYP51; [12]): 106 ± 15 nM
MIC [5, 13]: 0.5 to 1 µg/mL
MIC [6]: 2 to 4 µg/mL
MIC [7, 14]: > 16 µg/mL
MIC [8]: > 16 µg/mL
IC50 [9]: 410 nM
MIC [10]: < 0.03 µg/mL
MIC CA14 [10]: <0.03 µg/mL

CCCCCOc1ccc(-c2cc(-c3ccc(C(=O)N[C@H]4C[C@@H](O)[C@@H](O)NC(=O)[C@@H]5[C@@H](O)[C@@H](C)CN5C(=O)[C@H]([C@H](O)CC(N)=O)NC(=O)[C@H]([C@H](O)[C@@H](O)c5ccc(O)c(OS(=O)(=O)O)c5)NC(=O)[C@@H]5C[C@@H](O)CN5C(=O)[C@H]([C@@H](C)O)NC4=O)cc3)no2)cc1 [Micafungin, reference compound] (X1-[Orn(4R-OH,5R-OH)]T[Hyp][hTyr(3S-OH,4S-OH,3'-OSO3H)][Gln(3R-OH)][Pro(3S-OH,4S-Me)]; lactam 1-C)
MIC ([1]; pH 6.8, read-out: MIC Y2411 parent): 0.125 µg/mL
MIC [3]: 0.125 µg/mL
MIC [4]: 0.125 µg/mL
MIC ([5]; pH 6.8, read-out: MIC Y2300 ScCYP51): 0.125 µg/mL
MIC [6]: 0.125 µg/mL
MIC ([7]; pH 6.8, read-out: MIC Y2760 HsCYP51): 0.125 µg/mL
MIC [8]: 0.125 µg/mL

CC[C@@H]([C@H](C)O)n1ncn(-c2ccc(N3CCN(c4ccc(OC[C@@H]5CO[C@@](Cn6cncn6)(c6ccc(F)cc6F)C5)cc4)CC3)cc2)c1=O [PCZ, posaconazole, reference compound]
MIC [1, 11]: < 0.03 µg/mL
MIC [3]: 0.06 µg/mL
MIC [4]: < 0.03 µg/mL
MIC [5, 13]: 0.06 µg/mL
MIC [6]: < 0.03 µg/mL
MIC [7, 14]: 8 µg/mL
MIC [8]: 8 µg/mL

OC(Cn1cncn1)(Cn1cncn1)c1ccc(F)cc1F [FLZ, Fluconazole, reference compound]
MIC [1, 11]: 4 µg/mL
MIC [2]: 0.125 µg/mL (≈ 0.408 µM)
MIC [3]: 32 µg/mL
MIC [4]: 32 µg/mL
Kd (native CaCYP51): 31 ± 8 nM
MIC [5, 13]: 16 µg/mL
MIC [6]: 32 µg/mL
MIC [7, 14]: > 128 µg/mL
MIC [8]: > 128 µg/mL
MIC [10]: 0.125 µg/mL (≈ 0.408 µM)

O=C(NCC(O)(Cn1cncn1)c1ccc(Cl)cc1)c1ccc(NC(=O)c2ccc(Cl)cc2)cc1 (stereo not drawn) [13a, 4-Chloro-N-(4-((2-(4-chlorophenyl)-2-hydroxy-3-(1H-1,2,4-triazol-1-yl)propyl)carbamoyl)phenyl)benzamide]
MIC [1, 11]: 0.25 µg/mL
MIC [2]: < 0.03 µg/mL
MIC SC5314 [2]: <0.03 µg/mL
MIC [3]: 1 to 2 µg/mL
MIC [4]: 0.125 µg/mL
Kd (native CaCYP51; [12]): 46 ± 8 nM
MIC [5, 13]: 1 to 2 µg/mL
MIC [6]: 1 µg/mL
MIC [7, 14]: > 16 µg/mL
MIC [8]: > 16 µg/mL
IC50 [9]: 560 nM
MIC [10]: < 0.03 µg/mL
MIC CA14 [10]: <0.03 µg/mL

O=C(NCC(O)(Cn1cncn1)c1ccc(Cl)cc1Cl)c1ccc(NC(=O)c2ccc(Cl)cc2)cc1 (stereo not drawn) [13b, 4-Chloro-N-(4-((2-(2,4-dichlorophenyl)-2-hydroxy-3-(1H-1,2,4-triazol-1-yl)propyl)carbamoyl)phenyl)benzamide]
MIC [1, 11]: 0.03 to 0.06 µg/mL
MIC [2]: < 0.03 µg/mL
MIC SC5314 [2]: <0.03 µg/mL
MIC [3]: 0.25 µg/mL
MIC [4]: 0.03 to 0.06 µg/mL
Kd (native CaCYP51; [12]): 166 ± 39 nM
MIC [5, 13]: 0.25 µg/mL
MIC [6]: 0.125 µg/mL
MIC [7, 14]: 4 to 8 µg/mL
MIC [8]: > 16 µg/mL
IC50 [9]: 480 nM
MIC [10]: < 0.03 µg/mL
MIC CA14 [10]: <0.03 µg/mL
